The text below walks through data of ChEMBL document CHEMBL5550158, “Novel 4-triazole phenyl amide (4-TPA) molecules: Potent promoters of α-synuclein fibril disassembly” (Eur J Med Chem, 2024).

The nature of data set [1]: AUC (0 to infinity) in ICR mouse at 10 mg/kg, ip measured upto 7 hrs by HPLC analysis. In kind it is ADME, organism-based. To be noted: in vivo.
The nature of data set [2]: Ratio of drug concentration in ICR mouse brain to plasma at 10 mg/kg, iv by LC-MS/MS analysis. In kind it is ADME, organism-based. To be noted: read-out: BPR.
The nature of data set [3]: Drug concentration in ICR mouse plasma at 10 mg/kg, iv by LC-MS/MS analysis. Type of data set: ADME, organism-based. To be noted: in vivo.
A short description of data set [4]: Clearance in ICR mouse plasma at 10 mg/kg, ip measured upto 7 hrs by HPLC analysis. Type of data set: ADME, organism-based. To be noted: in vivo.
Data set [5] can be described thus: AUC (0 to infinity) in ICR mouse at 10 mg/kg, iv measured upto 7 hrs by HPLC analysis. Type of data set: ADME, organism-based. To be noted: in vivo.
Data set [6] has as its system SH-SY5Y. The data set is described as follows: Neuroprotective activity against PFF-induced human SH-SY5Y cells assessed as diffusion of Cy5-PFF and lysosome into cytoplasm measured for 12 hrs by olympus confocal microscopic analysis. Type of data set: functional, cell-based.
Data set [7] in a line: Drug concentration in ICR mouse brain at 10 mg/kg, iv by LC-MS/MS analysis. In kind it is ADME, organism-based. To be noted: in vivo.
The subject of data set [8] is SH-SY5Y. In words: Neuroprotective activity against PFF-induced human SH-SY5Y cells assessed as decrease in autophagosome level measured for 6 hrs by MDC fluorescence assay. In kind it is functional, cell-based.
The nature of data set [9]: Clearance in ICR mouse plasma at 10 mg/kg, iv measured upto 7 hrs by HPLC analysis. In kind it is ADME, organism-based.
Data set [10] can be described thus: Half life in ICR mouse at 10 mg/kg, ip measured upto 7 hrs by HPLC analysis. In kind it is ADME, organism-based. To be noted: in vivo.
A short description of data set [11]: Half life in ICR mouse at 10 mg/kg, iv measured upto 7 hrs by HPLC analysis. Type of data set: ADME, organism-based. To be noted: in vivo.
Data set [12] is described as follows: Tmax in ICR mouse at 10 mg/kg, ip measured upto 7 hrs by HPLC analysis. Type of data set: ADME, organism-based. To be noted: in vivo.
Data set [13] concerns SH-SY5Y. In words: Cytotoxicity against PFF-induced human SH-SY5Y cells assessed as increase in LDH release incubated for 24 hrs by fluorescence based analysis. In kind it is functional. Background: LDH leaks from cells whose membrane has failed.
Data set [14] can be described thus: Bioavailability in ICR mouse at 10 mg/kg, ip or 10 mg/kg, iv measured upto 7 hrs by HPLC analysis. In kind it is ADME, organism-based. To be noted: in vivo.
In data set [15] the test system is SH-SY5Y. In words: Induction of ROS level in PFF-induced human SH-SY5Y cells measured for 12 hrs by DCFH-DA staining based analysis. Type of data set: functional, cell-based.

Activity calls are given as the source filed them. No cut-off for these calls is given here.

In data set [1], `COc1cc([N+](=O)[O-])ccc1-n1cc(-c2ccc(NC(=O)c3ccc(NC(C)=O)cc3)cc2)nn1` gave an AUC of 1793.287 mg·min/L. The Kp in data set [2] is 0.1. Besides, the Cp in data set [3] is 17180 ng/mL. Also, the CL in [4] is 2 mL/min/kg. The same compound gave an AUC(0-inf) in data set [5] of 41300 ng·h/mL. Besides, the outcome in data set [6] and in [8] was Active. The compound further came in with a Ct in [7] of 1.76 µg/mL. For the same compound, in [9], the clearance amounted to 4 mL/min/kg. The half-life in data set [10] came out at 69 min; in [11], 48 min. Also, in data set [12], the Tmax was 30 min. Besides, the Activity in data set [13] was about 30%. Further, the bioavailability in [14] turned out to be 72.4%. Moreover, in data set [15], the outcome was inactive.
Regarding `COc1ccc(-n2cc(-c3ccc(NC(=O)c4cc(Br)cc(OC)c4)cc3)nn2)cc1`, the outcome in [8] was inactive. In addition, the Activity in [13] is about 30%.

For orientation: AUC means the area under the concentration-time curve, a measure of exposure. A high value points to high exposure. A word on the AUC(0-inf): it is total exposure, with the tail of the curve extrapolated. The low end stands for less exposure, the high end for more exposure. The clearance is the volume of plasma or blood freed of the substance per unit of time. The low end stands for a low capacity for elimination, the high end for a high capacity for elimination. The term half-life denotes the time in which the quantity being followed falls by half. A low value points to fast loss. As usually defined, the Tmax is the time at which the peak concentration occurs. Usually bioavailability stands for dose-corrected exposure relative to a reference, in per cent.
